Data published in PubChem BioAssay (NCI).
“And” between values parts separate entries of the source, which are not always exact repeats. Identical values can stand only once.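 Assay format: 96-well plates, 48-hour exposure. Here, GI50 denotes the concentration required for 50% inhibition of growth. TGI marks complete inhibition of growth.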

What was measured:
Experiment in all cases: DTP human tumour cell line panel, 48 h
[1] = system: SNB-75 CNS
[2] = system: HT29 colon
[3] = system: SNB-19 CNS
[4] = system: PC-3 prostate
[5] = system: MCF7 breast
[6] = system: SK-MEL-5 melanoma
[7] = system: OVCAR-3 ovarian
[8] = system: 786-0 renal
[9] = system: HCT-116 colon
[10] = system: UACC-257 melanoma

Row | Compound | GI50 [1] [µM] | TGI [1] [µM] | GI50 [2] [µM] | TGI [2] [µM] | GI50 [3] | TGI [3] | GI50 [4] [µM] | TGI [4] | GI50 [5] [µM] | TGI [5] | GI50 [6] [µM] | TGI [6] [µM] | GI50 [7] [µM] | TGI [7] [µM] | GI50 [8] [µM] | TGI [8] | GI50 [9] [µM] | TGI [9] [µM] | GI50 [10] [µM] | TGI [10]
1 | COC(=O)C1=CNC=C(C(=O)OC)C1C1=CC(=O)C(C)=CC1=O | 16 | 42 | 29.9 | > 100 | 18.5 µM | 36.7 µM | 16.3 | 30.5 µM | 16.7 | 47.5 µM | 20.7 | 43.7 | 5.64 | 22.1 | 4.3 | 11.5 µM | 1.94 | 3.79 | 16.4 | 31.1 µM
2 | COC1=C(C)C(=O)c2c(c(COC(N)=O)c3n2CC2C3N2C)C1=O (stereo unspecified) |  | < 0.0446 |  | 0.314 |  | 0.256 µM |  | 0.244 µM |  | < 0.027 µM |  | 0.15 |  | 0.0987 |  | 0.102 µM |  | 0.0641 |  | 0.0641 µM
3 | N=C1C(c2nc3ccccc3s2)=C(O)CN1c1cc(C(F)(F)F)ccc1Cl | 24.1 | > 100 | 25.8 | > 100 | 60.6 µM | > 100 µM | 5.82 | 49.9 µM | 16.9 | 92.1 µM | 6.61 | 46.7 | 4.47 | 40.4 | 38.1 | > 100 µM | 8.59 | 62.2 | 7.65 | 46.1 µM
4 | CN1c2ccc(Cl)cc2C(=O)NC1c1ccc([N+](=O)[O-])s1 (stereo unspecified) |  | 35.4 |  | 39.1 |  | > 100 µM |  | 36.1 µM |  | 44.6 µM |  | 31.6 |  | 31.4 |  | 30.8 µM |  | 29 |  | 29.1 µM
5 | OC[C@H]1CCCC1O (stereo partly specified) |  | > 100 |  | > 100 |  | > 100 µM |  | > 100 µM |  | > 100 µM |  | > 100 |  | > 100 |  | > 100 µM |  | > 100 |  | > 100 µM
6 | O=C(O)C1OC(n2cc(F)c(=O)[nH]c2=O)CC1O (stereo unspecified) |  | > 100 |  | > 100 |  | > 100 µM |  | > 100 µM |  | > 100 µM |  | > 100 |  | > 100 |  | > 100 µM |  | > 100 |  | > 100 µM
7 | COc1nc2ccccc2cc1-c1nc2c(cnn2-c2ccc(Br)cc2)c(=O)[nH]1 | 0.0161 | 1.46 | 0.0191 | > 50 | 0.0244 µM | 15.1 µM | 0.0231 | > 50 µM | 0.0201 | > 50 µM | 0.0293 |  | 0.0171 | 0.219 | 0.0403 | 8.6 µM | 0.0196 | > 50 | 6.77 | > 50 µM
8 | CC(=O)/C(C)=N/NC(=O)c1ccccc1O | > 100 | > 100 | > 100 | > 100 | > 100 µM | > 100 µM |  | > 100 µM |  | > 100 µM |  | > 100 | > 10 | > 100 | > 100 | > 100 µM | > 100 | > 100 | > 100 | > 100 µM
9 | CN1CCN(CCCOc2ccc3nc(Nc4ccc(Cl)c(C(F)(F)F)c4)ccc3c2)CC1 | 7.09 | 20.5 | 2.67 | 8.38 | 16.2 µM | 34.5 µM | 13.3 | 27.1 µM | 4.94 | 22 µM | 15.1 | 29.1 | 12.5 | 25.8 | 13.9 | 28.2 µM | 8.44 | 21.7 | 18.8 | 33.4 µM
10 | COC1=CC(=O)c2nc(-c3cccc(C)n3)[nH]c2C1=O | 21.2 | 43.6 | 33.4 | > 100 | 23.3 µM | 60.6 µM | 11.8 | 39.5 µM | 16.6 | 35.7 µM | 15.9 | 36.4 | 22.9 | 46.4 | 19.8 | 46.3 µM | 18 | 35.7 | 65.3 | > 100 µM
11 | CCCN1CCC(=O)N(CCC(F)(F)C(F)(F)C(F)(F)C(F)(F)C(F)(F)C(F)(F)F)C1=S |  | > 100 |  | > 100 |  | > 100 µM |  | > 100 µM |  | > 100 µM |  | > 100 |  | > 100 |  | > 100 µM |  | > 100 |  | > 100 µM
12 | COC(C(O)CO)C(O)C(O)C(=O)NNc1ccccc1 (stereo unspecified) |  | > 100 |  | > 100 |  | > 100 µM |  | > 100 µM |  | > 100 µM |  | > 100 |  | > 100 |  | > 100 µM |  | > 100 |  | > 100 µM
13 | C=C1C(=O)O[C@@H]2/C=C(\C)CC/C=C(/COC(C)=O)C[C@@H](OC(C)=O)[C@@H]12 |  | > 100 |  | > 40.9 |  | > 95.9 µM |  | 36.4 µM |  | 17 µM |  | 25.7 |  | 14.2 |  | 17.7 µM |  | 14.6 |  | 32.2 µM
14 | CCCCC(O)(c1ccc(Cl)cc1)C(CN1CCOCC1)c1ccc(Cl)cc1 (stereo unspecified) | 16.8 | 44.7 | 4.14 | 18.2 | 15.3 µM | 36.6 µM | 7.68 | 23.9 µM | 10.6 | 24.5 µM | 13.8 | 28.7 | 14.5 | 28 | 13.6 | 27.5 µM | 5.23 | 20.3 | 14.3 | 35 µM
15 | CN1C(=O)c2cccc3cc([N+](=O)[O-])cc(c23)C1=O |  | > 10 |  | > 10 |  | > 10 µM |  | > 10 µM |  | > 10 µM |  | > 10 |  | > 10 |  | > 10 µM |  | > 10 |  | > 10 µM
16 | COC(=O)[C@H](C)NC(=O)NC(=O)NC(=O)CI | 15.9 | 30.3 | 18.1 | 36.4 | 19.8 µM | 43.1 µM | 17.1 | 32.2 µM | 10.2 | 29.8 µM | 17.6 | 31.8 | 12.3 | 25.2 | 17.3 | 32.1 µM | 13.9 | 28.4 | 15.8 | 29.9 µM
17 | C=C1C(=O)O[C@H]2[C@H]1CC/C(COC(=O)C(=O)c1cn(Cc3ccccc3)c3ccccc13)=C\CC[C@@]1(C)O[C@@H]21 | 1.83 | 8.4 | 2.02 | 4.53 | 7.21 µM | 25.9 µM | 2.14 | 4.35 µM | 1.19 | 3.06 µM | 1.99 | 4.1 | 2.18 | 5.65 | 1.93 | 4.03 µM | 1.62 | 3.36 | 2.16 | 5.21 µM
18 | Cc1cc(S(=O)(=O)Nc2nnc(-c3ccccc3)c(-c3ccccc3)n2)c(SCC(N)=O)cc1Cl | > 100 | > 100 | > 100 | > 100 | 35.3 µM | > 100 µM | 94.8 | > 100 µM | 36.4 | > 100 µM | 57.8 | > 100 | 19.6 | 42.8 | 38.6 | > 100 µM | 20.7 | 37.8 | 33.1 | 97.6 µM
19 | CC(C)(C)c1cc(Br)c(O)c(CN(Cc2cc(C(C)(C)C)cc(Br)c2O)C2CCCCC2)c1 |  | 20.9 |  | 19.3 |  | 27.1 µM |  | 28.1 µM |  | 26.8 µM |  | 22.8 |  | 24.2 |  | 27.7 µM |  | 25 |  | 16.5 µM
20 | COc1cc2c(c(OC)c1OC)-c1ccc(OC)c(=O)cc1[C@@H](NC(=O)c1ccccc1)CC2 |  | 33.8 | 0.00658 |  | < 0.003 µM and 0.0157 µM | 30 µM and 46.3 µM | < 0.003 | 30 µM and > 56.5 µM | < 0.003 | 30 µM and > 7.65 µM | 0.00569 |  | < 0.003 |  | 0.0114 | 30 µM and 47.5 µM | < 0.003 |  | 24.2 | 30 µM and > 100 µM
21 | Oc1ccccc1C(Sc1nc2ccccc2s1)Sc1nc2ccccc2s1 |  | > 100 |  | > 100 |  | > 100 µM |  | > 100 µM |  | > 100 µM |  | > 100 |  | > 100 |  | > 100 µM |  | > 100 |  | > 100 µM
22 | O=C(NC1=CC(=O)c2ccccc2C1=O)c1ccccc1 | 0.373 | 8.1 | 2.33 | 4.9 | 2.9 µM | 16.4 µM | 0.421 | 2.44 µM | 1.05 | 2.76 µM | 0.399 | 1.48 | 0.685 | 2.01 | 3.01 | 17.2 µM | 0.409 | 1.6 | 1.22 | 2.57 µM
23 | COC(=O)[C@@H](C)CNS(=O)(=O)N(c1cc(C(F)(F)F)cc(C(F)(F)F)c1)C1CCN(Cc2ccc(F)cc2)CC1 | 6.24 | 20.4 | 3.78 | 14.6 | 13 µM | 25.8 µM | 7.61 | 20.8 µM | 6.91 | 21.9 µM | 3.19 | 12 | 10.4 | 23 | 11.2 | 24 µM | 4.41 | 16.4 | 16.4 | 30.8 µM
24 | NS(=O)(=O)c1ccc(NC2(C(=O)O)CCCC2)cc1 |  | > 100 |  | > 100 |  | > 100 µM |  | > 100 µM |  | > 100 µM |  | > 100 |  | > 100 |  | > 100 µM |  | > 100 |  | > 100 µM
25 | O=C(N/N=C/c1ccc(Cl)cc1)c1ccc(C(F)(F)F)nc1Nc1cccc(C(F)(F)F)c1 | 2.72 | 13.4 | 1.44 | 11.7 | 2.61 µM | 13 µM | 2.05 | 8.03 µM | 2.26 | 10.8 µM | 1.46 | 3.55 | 1.11 | 6.9 | 0.818 | 3.63 µM | 2.6 | 10.9 | 2.43 | 8.99 µM
26 | c1cc(CNC23CC4CC(CC(C4)C2)C3)cc(C[N+](Cc2cccc(CNC34CC5CC(CC(C5)C3)C4)c2)(Cc2cccc(CNC34CC5CC(CC(C5)C3)C4)c2)Cc2cccc(CNC34CC5CC(CC(C5)C3)C4)c2)c1 (stereo unspecified) | 9.78 | 40.7 | 3.58 | 11.8 | 8.05 µM | 30.4 µM | 5.86 | 21.6 µM | 4.46 | 25.9 µM | 6.36 | 26.3 | 4.35 | 11.8 | 3.55 | 7.75 µM | 3.04 | 8.42 | 12.9 | 45.3 µM
